One assay relates to S. aureus AR222. Set-up: key to Antibiotic susceptibility (R/S/I): R: resistance; S: sensitive; I: intermediate. The note with it: S. aureus AR222 (CDC strain), cited from earlier work; for Antibiotic susceptibility (R/S/I): Table 2.
The subject of the next assay is S. aureus ATCC 25923. Details: key: R: resistance; S: sensitive; I: intermediate. The note with it: Table 2; cited from earlier work.
The next assay relates to S. aureus AR217. Set-up: key to Antibiotic susceptibility (R/S/I): R: resistance; S: sensitive; I: intermediate. Conditions: S. aureus AR217 (CDC strain), cited from earlier work; for Antibiotic susceptibility (R/S/I): Table 2.
In another assay the test system is S. aureus AR215. Details: key to Antibiotic susceptibility (R/S/I): R: resistance; S: sensitive; I: intermediate. The note with it: S. aureus AR215 (CDC strain), cited from earlier work; for Antibiotic susceptibility (R/S/I): Table 2.
Another assay deals with S. aureus ATCC25923. In words: S. aureus MIC80 determination, broth microdilution (CLSI) in CAMHB. Type of assay: cell-based. The note with it: Staphylococcus aureus, ATCC25923; Table 1; S. aureus ATCC 25923; growth inhibition ≥80% vs vehicle, 16-24 h; read-out: ATCC 25923 MIC80. The method, then:
S. Aureus MIC80 determinations in S. aureus ATCC25923 or in multidrug-resistant strains AR215, AR217 and AR255. MIC80's were determined by the broth microdilution method recommended by the Clinical and Laboratory Standards Institute (CLSI) in Cation-adjusted Mueller-Hinton broth (CAMHB). (Cao et al., 2018). In the preliminary screening, three compound concentrations were used: 5.8, 20.4, and 71.4 μM; for quantitative MIC80 measurements, a 1.5-fold dilution series of the compounds was prepared in CAMHB. Overnight bacterial culture was added to the diluted compounds in a 96-well plate after adjusting the bacterial concentration to achieve a 5×10^5 CFU/mL final concentration. After 16-24 h incubation at 35±2° C., the plates were read at 600 nm in a microplate reader. The MIC80 was defined as the concentration of an antibacterial agent that inhibited bacteria growth ≥80% compared to vehicle-treated control cultures. All values were determined at least twice independently, and the average number is reported.
Background: Dilution methods test growth across graded concentrations, often in twofold steps.

The text below walks through data of US12570647B2 (Saint Louis University, priority 2021, dated 2026).

≈ marks a conversion by molar mass, not a printed value.

`CCCCCCCCCC(=O)N[C@@H](Cc1c[nH]c2ccccc12)C(=O)N[C@H](CC(N)=O)C(=O)N[C@@H](CC(=O)O)C(=O)N[C@@H]1C(=O)NCC(=O)N[C@@H](CCCN)C(=O)N[C@@H](CC(=O)O)C(=O)N[C@H](C)C(=O)N[C@@H](CC(=O)O)C(=O)NCC(=O)N[C@H](CO)C(=O)N[C@@H]([C@H](C)CC(=O)O)C(=O)N[C@@H](CC(=O)c2ccccc2N)C(=O)O[C@@H]1C` [DAP, Daptomycin]: the “Antibiotic susceptibility (R/S/I)” value in the assay with S. aureus AR222 and in the assay on S. aureus ATCC 25923 was “S” each time. As to `CC[C@H]1OC(=O)[C@H](C)[C@@H](O[C@H]2C[C@@](C)(OC)[C@@H](O)[C@H](C)O2)[C@H](C)[C@@H](O[C@@H]2O[C@H](C)C[C@H](N(C)C)[C@H]2O)[C@](C)(O)C[C@@H](C)C(=O)[C@H](C)[C@@H](O)[C@]1(C)O` [ERY, Erythromycin], the “Antibiotic susceptibility (R/S/I)” value is “S” with S. aureus AR217, “R” in the assay with S. aureus AR215, “S” in the assay with S. aureus AR222 and “S” in the assay with S. aureus ATCC 25923. Besides, the “Resistance of the strain to the antibiotic” value (“Resistance of the strain” for short) in the assay with S. aureus AR215 was “resistant”. For the compound `Cc1cc(Cl)cc2sc(N(CC3CCNC3)C(=O)C3CCC3)nc12` (centres unmarked) [Example 40, N-(6-chloro-4-methyl-1,3-benzothiazol-2-yl)-N-[(pyrrolidin-3-yl)methyl]cyclobutanecarboxamide], in the assay on S. aureus ATCC25923, the MIC80 is 29.6 µM (≈ 10.8 µg/mL).

Regarding `Cc1cc(Cl)cc2sc(N(CC3CCNC3)C(=O)C3CC3)nc12` (centres unmarked) [Example 41, N-(6-chloro-4-methylbenzo[d]thiazol-2-yl)-N-(pyrrolidin-3-ylmethyl)cyclopropanecarboxamide], in the assay on S. aureus ATCC25923, the MIC80 worked out at 44.4 µM (≈ 15.5 µg/mL). The same measure, in the same setting: under `Cc1cc(Cl)cc2sc(N(CC3CCCNC3)C(=O)C3CC3)nc12` (centres unmarked) [Example 42, N-(6-chloro-4-methyl-1,3-benzothiazol-2-yl)-N-[(piperidin-3-yl)methyl]cyclopropanecarboxamide] stands 66.7 µM (≈ 24.3 µg/mL); under `Cc1cc(Cl)cc2sc(N(CCC3CCNCC3)C(=O)C3CC3)nc12` [Example 43, N-(6-chloro-4-methyl-1,3-benzothiazol-2-yl)-N-[2-(piperidin-4-yl)ethyl]cyclopropanecarboxamide], 100 µM (≈ 37.8 µg/mL). With `Cc1cc(Cl)cc2sc(N(CCCn3cccc3)C(=O)c3ccco3)nc12` [Example 44, N-(6-chloro-4-methyl-1,3-benzothiazol-2-yl)-N-[3-(1H-pyrrol-1-yl)propyl]furan-2-carboxamide], in the assay with S. aureus ATCC25923, the MIC80 was more than 100 µM.

For `Cc1cc(Cl)cc2sc(N(C[C@H]3CC[C@H](N)CC3)C(=O)C3CC3)nc12` [Example 45, N-(6-chloro-4-methyl-1,3-benzothiazol-2-yl)-N-{[(1r,4r)-4-aminocyclohexyl]methyl}cyclopropanecarboxamide], the MIC80 with S. aureus ATCC25923 was found to be 19.8 µM (≈ 7.48 µg/mL). The same measure, in the same setting: under `NCc1cccc2sc(N(CCCn3ccnc3)C(=O)c3ccco3)nc12` [Example 46, N-[4-(aminomethyl)-1,3-benzothiazol-2-yl]-N-[3-(1H-imidazol-1-yl)propyl]furan-2-carboxamide] stands more than 100 µM. Take `NCc1cccc2sc(N(CCCn3ccnc3)C(=O)C3CCC3)nc12` [Example 47, N-[4-(aminomethyl)-1,3-benzothiazol-2-yl]-N-[3-(1H-imidazol-1-yl)propyl]cyclobutanecarboxamide]: the MIC80 in the assay with S. aureus ATCC25923 was more than 100 µM.

As to `NCc1cccc2sc(N(CCCn3ccnc3)C(=O)C3CC3)nc12` [Example 48, N-[4-(aminomethyl)-1,3-benzothiazol-2-yl]-N-[3-(1H-imidazol-1-yl)propyl]cyclopropanecarboxamide], the MIC80 with S. aureus ATCC25923 was more than 100 µM. Turning to `NCc1ccc2nc(N(CCCn3ccnc3)C(=O)c3ccco3)sc2c1` [Example 49, N-[6-(aminomethyl)-1,3-benzothiazol-2-yl]-N-[3-(1H-imidazol-1-yl)propyl]furan-2-carboxamide], the MIC80 in the assay on S. aureus ATCC25923 was more than 100 µM. The same measure, in the same setting: with `NCc1ccc2nc(N(CCCn3ccnc3)C(=O)C3CCC3)sc2c1` [Example 50, N-[6-(aminomethyl)-1,3-benzothiazol-2-yl]-N-[3-(1H-imidazol-1-yl)propyl]cyclobutanecarboxamide] the figure was more than 100 µM. The same measure, in the same setting: with `NCc1ccc2nc(N(CCCn3ccnc3)C(=O)C3CC3)sc2c1` [Example 51] the figure was more than 100 µM; with `O=C(c1ccco1)N(CCCn1ccnc1)c1nc2ccc(Cl)nc2s1` [Example 52, N-{5-chloro-[1,3]thiazolo[5,4-b]pyridin-2-yl}-N-[3-(1H-imidazol-1-yl)propyl]furan-2-carboxamide], more than 100 µM; with `O=C(C1CC1)N(CCCn1ccnc1)c1nc2ccc(Cl)nc2s1` [Example 53, N-{5-chloro-[1,3]thiazolo[5,4-b]pyridin-2-yl}-N-[3-(1H-imidazol-1-yl)propyl]cyclopropanecarboxamide], more than 100 µM. The same measure, in the same setting: under `Cc1nc(Cl)cc2sc(N(CCCn3ccnc3)C(=O)c3ccco3)nc12` [Example 54, N-{6-chloro-4-methyl-[1,3]thiazolo[4,5-c]pyridin-2-yl}-N-[3-(1H-imidazol-1-yl)propyl]furan-2-carboxamide] stands more than 100 µM. `Cc1nc(Cl)cc2sc(N(CCCn3ccnc3)C(=O)C3CC3)nc12` [Example 55, N-{6-chloro-4-methyl-[1,3]thiazolo[4,5-c]pyridin-2-yl}-N-[3-(1H-imidazol-1-yl)propyl]cyclopropanecarboxamide]: in the assay on S. aureus ATCC25923, the MIC80 was determined as 100 µM (≈ 37.6 µg/mL). In the case of `Cc1cc(Cl)cc2sc(N(CC3CCN(C(=O)OC(C)(C)C)CC3)C(=O)C3CCC3)nc12` [Example 56], in the assay on S. aureus ATCC25923, the MIC80 is more than 100 µM. On the same count and under the same terms, with `Cc1cc(Cl)cc2sc(N3CCC(CNC(=O)OC(C)(C)C)CC3)nc12` [Example 57] the figure was more than 100 µM; with `Cc1cc(Cl)cc2sc(N3CCC(NC(=O)OC(C)(C)C)CC3)nc12` [Example 58], more than 100 µM. Same read-out and setting: under `Cc1cc(Cl)cc2sc(N3CCN(C(=O)OC(C)(C)C)CC3)nc12` [Example 59] stands more than 100 µM; under `Cc1cc(Cl)cc2sc(N(CCCn3ccnc3)C(=O)C(C)N)nc12` (centres unmarked) [Example 60], more than 100 µM.

Regarding `Cc1cc(Cl)cc2sc(NC(=O)C3CC3)nc12` [Example 61], in the assay with S. aureus ATCC25923, the MIC80 is more than 100 µM.

For `Cc1cc(Cl)cc2sc(NC(=O)c3ccco3)nc12` [Example 62], in the assay on S. aureus ATCC25923, the MIC80 is more than 100 µM. With `CO[C@@]1(NC(=O)Cc2cccs2)C(=O)N2C(C(=O)O)=C(COC(N)=O)CS[C@@H]21` [FOX, Cefoxitin], the “Resistance of the strain” value in the assay on S. aureus AR217 and in the assay on S. aureus AR215 was “resistant” each time. For the same compound, the entries for the “Antibiotic susceptibility (R/S/I)” value in the assay with S. aureus AR217, with S. aureus AR215 and in the assay on S. aureus AR222 were “R”, “R” and “S”, respectively. With `CC(=O)NC[C@H]1CN(c2ccc(N3CCOCC3)c(F)c2)C(=O)O1` [LZD, Linezolid], the “Antibiotic susceptibility (R/S/I)” value in the assay on S. aureus AR217, in the assay on S. aureus AR215, in the assay with S. aureus AR222 and with S. aureus ATCC 25923 was “S” throughout. `Cc1onc(-c2ccccc2)c1C(=O)N[C@@H]1C(=O)N2[C@@H]1SC(C)(C)[C@@H]2C(=O)O` [OXA, Oxacillin]: the “Resistance of the strain” value with S. aureus AR217 and with S. aureus AR215 was “resistant” each time. For the same compound, the “Antibiotic susceptibility (R/S/I)” value in the assay with S. aureus AR217 is “R”; in the assay on S. aureus AR215, “R”; in the assay on S. aureus AR222 it was “S”; in the assay with S. aureus ATCC 25923 it was “S”.

On to `CO[C@H]1/C=C/O[C@@]2(C)Oc3c(C)c(O)c4c(O)c(c(/C=N/N5CCN(C)CC5)c(O)c4c3C2=O)NC(=O)/C(C)=C\C=C\[C@H](C)[C@H](O)[C@@H](C)[C@@H](O)[C@@H](C)[C@H](OC(C)=O)[C@@H]1C` [RIF, Rifampin], for which the “Antibiotic susceptibility (R/S/I)” value is given as “S” in the assay with S. aureus AR217, “S” in the assay on S. aureus AR215, “I” with S. aureus AR222 and “S” in the assay with S. aureus ATCC 25923. `CN[C@H](CC(C)C)C(=O)N[C@H]1C(=O)N[C@@H](CC(N)=O)C(=O)N[C@H]2C(=O)N[C@H]3C(=O)N[C@H](C(=O)N[C@H](C(=O)O)c4cc(O)cc(O)c4-c4cc3ccc4O)[C@H](O)c3ccc(c(Cl)c3)Oc3cc2cc(c3O[C@@H]2O[C@H](CO)[C@@H](O)[C@H](O)[C@H]2O[C@H]2C[C@](C)(N)[C@H](O)[C@H](C)O2)Oc2ccc(cc2Cl)[C@H]1O` [VAN, Vancomycin]: the “Antibiotic susceptibility (R/S/I)” value in the assay on S. aureus AR217 is on record as “I”; in the assay with S. aureus AR215 it was “I”; in the assay on S. aureus AR222, “I”; with S. aureus ATCC 25923, “S”. In the case of Penicillin, the “Resistance of the strain” value with S. aureus AR217, in the assay on S. aureus AR215 and with S. aureus AR222 was “resistant” throughout. For the same compound, the “Antibiotic susceptibility (R/S/I)” value in the assay with S. aureus AR217, with S. aureus AR215 and in the assay with S. aureus AR222 was “R” throughout.

As a reminder, the MIC80 is an inhibitory concentration at the 80% level, which refers to growth in some studies and to a panel of isolates in others.
